Test results taken from patent US8299111B2, “Compounds which modulate the CB2 receptor” (Boehringer Ingelheim International GmbH, priority 2006, dated 2012).

target: T1, human CB2R (Homo sapiens, UniProt P34972); assay: CB2R mediated modulation of cAMP synthesis; type: cell-based; details: found through the use of the above described assays (binding and cAMP); CHO cells expressing human CB2R, forskolin-stimulated cAMP
T1 construct: host or cells: CHO cells
Description: B. CB2R Mediated Modulation of cAMP Synthesis:
CHO cells expressing human CB2R (Euroscreen) were plated at a density of 5000 cells per well in 384 well plates and incubated overnight at 37° C. After removing the media, the cells were treated with test compounds diluted in stimulation buffer containing 1 mM IBMX, 0.25% BSA and 10 uM Forskolin. The assay was incubated for 30 minutes at 37° C. Cells were lysed and the cAMP concentration was measured using DiscoverX -XS cAMP kit, following the manufacturer's protocol. In this setting, agonists will decrease forskolin induced production of cAMP while inverse agonists will further increase forskolin induced production of cAMP. EC50 of agonists were calculated as follows. The maximal amount of cAMP produced by forskolin compared to the level of cAMP inhibited by 1 uM CP55940 is defined as 100%. The EC50 value of each test compound was determined as the concentration at which 50% of the forskolin-stimulated cAMP synthesis was inhibited. Data was analyzed using a four-parameter logistic model. (Model 205 of XLfit 4.0).

T1 sequence (P34972 whole entry): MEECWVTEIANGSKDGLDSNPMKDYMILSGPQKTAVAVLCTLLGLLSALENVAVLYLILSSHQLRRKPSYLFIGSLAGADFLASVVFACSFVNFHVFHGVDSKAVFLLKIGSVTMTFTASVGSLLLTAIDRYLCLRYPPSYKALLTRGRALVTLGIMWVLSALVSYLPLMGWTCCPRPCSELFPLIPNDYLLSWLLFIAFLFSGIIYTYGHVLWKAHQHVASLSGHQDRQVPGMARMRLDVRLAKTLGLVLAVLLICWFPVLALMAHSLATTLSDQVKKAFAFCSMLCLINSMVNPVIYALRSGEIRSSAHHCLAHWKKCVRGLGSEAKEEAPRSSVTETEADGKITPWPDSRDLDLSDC

| SMILES | agonistic activity |
| --- | --- |
| CC(C)(C(=O)Nc1ccc(C(F)(F)F)cn1)S(=O)(=O)c1cccc(F)c1 [2-(3-Fluoro-benzenesulfonyl)-2-methyl-N-(5-trifluoromethyl-pyridin-2-yl)-propionamide] | agonistic activity |
| CC(C)(C(=O)Nc1ccc(C(F)(F)F)cn1)S(=O)(=O)c1ccc(Br)cc1 [2-(4-Bromo-benzenesulfonyl)-2-methyl-N-(5-trifluoromethyl-pyridin-2-yl)-propionamide] | agonistic activity |
| Cn1nc(C(C)(C)C)cc1NC(=O)C(C)(C)S(=O)(=O)c1ccc(Br)cc1 [2-(4-Bromo-benzenesulfonyl)-N-(5-tert-butyl-2-methyl-2H-pyrazol-3-yl)-2-methyl-propionamide] | agonistic activity |
| CC(C)(C)c1cc(NC(=O)C(C)(C)S(=O)(=O)c2ccc(Br)cc2)no1 [2-(4-Bromo-benzenesulfonyl)-N-(5-tert-butyl-isoxazol-3-yl)-2-methyl-propionamide] | agonistic activity |
| Cn1nc(-c2ccccc2)cc1NC(=O)C(C)(C)S(=O)(=O)c1ccc(Cl)cc1F [2-(4-Chloro-2-fluoro-benzenesulfonyl)-2-methyl-N-(2-methyl-5-phenyl-2H-pyrazol-3-yl)-propionamide] | agonistic activity |
| CC(C)(C(=O)Nc1ccc(C(F)(F)F)cn1)S(=O)(=O)c1ccc(Cl)cc1F [2-(4-Chloro-2-fluoro-benzenesulfonyl)-2-methyl-N-(5-trifluoromethyl-pyridin-2-yl)-propionamide] | agonistic activity |
| CC(C)(C(=O)Nc1cccc(C(F)(F)F)n1)S(=O)(=O)c1ccc(Cl)cc1F [2-(4-Chloro-2-fluoro-benzenesulfonyl)-2-methyl-N-(6-trifluoromethyl-pyridin-2-yl)-propionamide] | agonistic activity |
| CCc1sc(NC(=O)C(C)(C)S(=O)(=O)c2ccc(Cl)cc2F)nc1-c1ccccc1 [2-(4-Chloro-2-fluoro-benzenesulfonyl)-N-(5-ethyl-4-phenyl-thiazol-2-yl)-2-methyl-propionamide] | agonistic activity |
| Cn1c(NC(=O)C(C)(C)S(=O)(=O)c2ccc(Cl)cc2)nc2ccccc21 [2-(4-Chloro-benzenesulfonyl)-2-methyl-N-(1-methyl-1H-benzoimidazol-2-yl)-propionamide] | agonistic activity |
| Cn1nc(-c2ccccc2)cc1NC(=O)C(C)(C)S(=O)(=O)c1ccc(Cl)cc1 [2-(4-Chloro-benzenesulfonyl)-2-methyl-N-(2-methyl-5-phenyl-2H-pyrazol-3-yl)-propionamide] | agonistic activity |
| Cn1nc(-c2cccs2)cc1NC(=O)C(C)(C)S(=O)(=O)c1ccc(Cl)cc1 [2-(4-Chloro-benzenesulfonyl)-2-methyl-N-(2-methyl-5-thiophen-2-yl-2H-pyrazol-3-yl)-propionamide] | agonistic activity |
| CC(C)(C(=O)Nc1ccccc1C(F)(F)F)S(=O)(=O)c1ccc(Cl)cc1 [2-(4-Chloro-benzenesulfonyl)-2-methyl-N-(2-trifluoromethyl-phenyl)-propionamide] | agonistic activity |
| Cc1noc(NC(=O)C(C)(C)S(=O)(=O)c2ccc(Cl)cc2)c1-c1ccccc1 [2-(4-Chloro-benzenesulfonyl)-2-methyl-N-(3-methyl-4-phenyl-isoxazol-5-yl)-propionamide] | agonistic activity |
| CC(C)(C(=O)Nc1nc(-c2ccccc2)no1)S(=O)(=O)c1ccc(Cl)cc1 [2-(4-Chloro-benzenesulfonyl)-2-methyl-N-(3-phenyl-[1,2,4]oxadiazol-5-yl)-propionamide] | agonistic activity |
| CC(C)(C(=O)Nc1nc(-c2ccccc2)ns1)S(=O)(=O)c1ccc(Cl)cc1 [2-(4-Chloro-benzenesulfonyl)-2-methyl-N-(3-phenyl-[1,2,4]thiadiazol-5-yl)-propionamide] | agonistic activity |
| CC(C)(C(=O)Nc1cc(-c2ccccc2)no1)S(=O)(=O)c1ccc(Cl)cc1 [2-(4-Chloro-benzenesulfonyl)-2-methyl-N-(3-phenyl-isoxazol-5-yl)-propionamide] | agonistic activity |
| CCCc1cc(NC(=O)C(C)(C)S(=O)(=O)c2ccc(Cl)cc2)on1 [2-(4-Chloro-benzenesulfonyl)-2-methyl-N-(3-propyl-isoxazol-5-yl)-propionamide] | agonistic activity |
| CC(C)(C(=O)Nc1cc(-c2cccs2)no1)S(=O)(=O)c1ccc(Cl)cc1 [2-(4-Chloro-benzenesulfonyl)-2-methyl-N-(3-thiophen-2-yl-isoxazol-5-yl)-propionamide] | agonistic activity |
| CC(C)(C(=O)Nc1cccc(C(F)(F)F)c1)S(=O)(=O)c1ccc(Cl)cc1 [2-(4-Chloro-benzenesulfonyl)-2-methyl-N-(3-trifluoromethyl-phenyl)-propionamide] | agonistic activity |
| CC(C)(C(=O)Nc1ncccc1C(F)(F)F)S(=O)(=O)c1ccc(Cl)cc1 [2-(4-Chloro-benzenesulfonyl)-2-methyl-N-(3-trifluoromethyl-pyridin-2-yl)-propionamide] | agonistic activity |
| Cc1csc(NC(=O)C(C)(C)S(=O)(=O)c2ccc(Cl)cc2)n1 [2-(4-Chloro-benzenesulfonyl)-2-methyl-N-(4-methyl-thiazol-2-yl)-propionamide] | agonistic activity |
| CC(C)(C(=O)Nc1nc(-c2ccccc2)co1)S(=O)(=O)c1ccc(Cl)cc1 [2-(4-Chloro-benzenesulfonyl)-2-methyl-N-(4-phenyl-oxazol-2-yl)-propionamide] | agonistic activity |
| CC(C)(C(=O)Nc1nc(-c2cccnc2)cs1)S(=O)(=O)c1ccc(Cl)cc1 [2-(4-Chloro-benzenesulfonyl)-2-methyl-N-(4-pyridin-3-yl-thiazol-2-yl)-propionamide] | agonistic activity |
| CC(C)(C(=O)Nc1nc(-c2ccncc2)cs1)S(=O)(=O)c1ccc(Cl)cc1 [2-(4-Chloro-benzenesulfonyl)-2-methyl-N-(4-pyridin-4-yl-thiazol-2-yl)-propionamide] | agonistic activity |
| CC(C)(C(=O)Nc1ccc(C(F)(F)F)cc1)S(=O)(=O)c1ccc(Cl)cc1 [2-(4-Chloro-benzenesulfonyl)-2-methyl-N-(4-trifluoromethyl-phenyl)-propionamide] | agonistic activity |
| CC(C)(C(=O)Nc1cc(C(F)(F)F)ccn1)S(=O)(=O)c1ccc(Cl)cc1 [2-(4-Chloro-benzenesulfonyl)-2-methyl-N-(4-trifluoromethyl-pyridin-2-yl)-propionamide] | agonistic activity |

Now from value to compound:

| agonistic activity | SMILES |
| --- | --- |
| agonistic activity | Cc1ccc(S(=O)(=O)C(C)(C)C(=O)Nc2cccc(C(F)(F)F)n2)cc1F [2-(3-Fluoro-4-methyl-benzenesulfonyl)-2-methyl-N-(6-trifluoromethyl-pyridin-2-yl)-propionamide] |
| agonistic activity | CC(C)(C(=O)Nc1cccc(C(F)(F)F)n1)S(=O)(=O)c1ccc(Br)cc1 [2-(4-Bromo-benzenesulfonyl)-2-methyl-N-(6-trifluoromethyl-pyridin-2-yl)-propionamide] |
| agonistic activity | CC(C)(C(=O)Nc1cc(C(F)(F)F)ccn1)S(=O)(=O)c1ccc(Cl)cc1F [2-(4-Chloro-2-fluoro-benzenesulfonyl)-2-methyl-N-(4-trifluoromethyl-pyridin-2-yl)-propionamide] |
| agonistic activity | CC(C)(C(=O)Nc1nc2c(s1)CCCC2)S(=O)(=O)c1ccc(Cl)cc1 [2-(4-Chloro-benzenesulfonyl)-2-methyl-N-(4,5,6,7-tetrahydro-benzothiazol-2-yl)-propionamide] |
| agonistic activity | Cc1c(-c2ccccc2)noc1NC(=O)C(C)(C)S(=O)(=O)c1ccc(Cl)cc1 [2-(4-Chloro-benzenesulfonyl)-2-methyl-N-(4-methyl-3-phenyl-isoxazol-5-yl)-propionamide] |
| agonistic activity | Cc1ccnc(NC(=O)C(C)(C)S(=O)(=O)c2ccc(Cl)cc2)c1 [2-(4-Chloro-benzenesulfonyl)-2-methyl-N-(4-methyl-pyridin-2-yl)-propionamide] |
| agonistic activity | CC(C)(C(=O)Nc1nc(-c2ccccc2)cs1)S(=O)(=O)c1ccc(Cl)cc1 [2-(4-Chloro-benzenesulfonyl)-2-methyl-N-(4-phenyl-thiazol-2-yl)-propionamide] |
| agonistic activity | CC(C)(C(=O)Nc1nc(CN2CCCCC2)cs1)S(=O)(=O)c1ccc(Cl)cc1 [2-(4-Chloro-benzenesulfonyl)-2-methyl-N-(4-piperidin-1-ylmethyl-thiazol-2-yl)-propionamide] |
| agonistic activity | CC(C)(C(=O)Nc1nc(-c2ccccn2)cs1)S(=O)(=O)c1ccc(Cl)cc1 [2-(4-Chloro-benzenesulfonyl)-2-methyl-N-(4-pyridin-2-yl-thiazol-2-yl)-propionamide] |
| agonistic activity | CC(C)(C(=O)Nc1nc(-c2cccs2)cs1)S(=O)(=O)c1ccc(Cl)cc1 [2-(4-Chloro-benzenesulfonyl)-2-methyl-N-(4-thiophen-2-yl-thiazol-2-yl)-propionamide] |
| agonistic activity | CC(C)(C(=O)Nc1nc(C(F)(F)F)cs1)S(=O)(=O)c1ccc(Cl)cc1 [2-(4-Chloro-benzenesulfonyl)-2-methyl-N-(4-trifluoromethyl-thiazol-2-yl)-propionamide] |
